Structures are written as SMILES. pIC50: −log10 of the molar value. Counter-ions that a name gives are not always drawn.

For orientation: pIC50 means −log10 of the IC50, conventionally taken in molar units.

The experiment deals with MK-2 (Homo sapiens, UniProt P49137). As to the kind of experiment: Determination of MK-2 IC50 (phosphorylation of HSP-peptide, anion exchange resin capture assay). In kind it is biochemical. The following applies: additional values are replicate IC50 experiments; mixture of stereoisomers implied unless otherwise noted; read-out: MK-2 Avg. IC50.
Chain of MK-2 (P49137 whole entry, species assumed): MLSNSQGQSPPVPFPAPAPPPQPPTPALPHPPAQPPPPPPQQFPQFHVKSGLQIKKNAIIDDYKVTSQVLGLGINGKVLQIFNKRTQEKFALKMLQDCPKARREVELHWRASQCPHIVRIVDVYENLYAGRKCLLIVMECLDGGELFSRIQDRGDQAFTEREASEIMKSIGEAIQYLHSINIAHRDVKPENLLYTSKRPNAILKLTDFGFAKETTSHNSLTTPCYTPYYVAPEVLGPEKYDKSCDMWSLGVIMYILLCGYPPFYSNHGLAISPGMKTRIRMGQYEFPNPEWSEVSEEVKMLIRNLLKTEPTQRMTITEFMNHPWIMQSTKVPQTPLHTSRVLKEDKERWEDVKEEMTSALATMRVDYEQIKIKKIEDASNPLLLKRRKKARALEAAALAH

Turning to `O=C1NCCc2c1[nH]c1ccc([N+](=O)[O-])cc21` [Example 253, 6-nitro-2,3,4,9-tetrahydro-1H-beta-carbolin-1-one], the pIC50 was less than 3.70.

On to `CC(C)(C)OC(=O)N1CCN(C(=O)c2cccc3[nH]c4c(c23)CCNC4=O)CC1` [Example 267, tert-butyl 4-[(1-oxo-2,3,4,9-tetrahydro-1H-beta-carbolin-5-yl)carbonyl]piperazine-1-carboxylate], for which the negative logarithm of the IC50 (pIC50) was less than 3.70.

Turning to `COc1ccc2[nH]c3c(c2c1)CCNC3CO` (stereo not drawn) [Example 221, (6-methoxy-2,3,4,9-tetrahydro-1H-beta-carbolin-1-yl)methanol], the pIC50 is less than 3.70.

In the case of `COc1ccc([N+](=O)[O-])c2c3c(n(C)c12)C(=O)NCC3` [Example 259, 8-methoxy-9-methyl-5-nitro-2,3,4,9-tetrahydro-1H-beta-carbolin-1-one], the pIC50 was less than 3.70.

On to `O=C(O)C1NCCc2c1[nH]c1ccc(OCC3CCCCC3)cc21` (stereo not drawn) [Example 198, 6-(cyclohexylmethoxy)-2,3,4,9-tetrahydro-1H-beta-carboline-1-carboxylic acid], for which the pIC50 is less than 3.70.

Take `NNC(=O)c1cccc2[nH]c3c(c12)CCNC3C(=O)O` (stereo not drawn) [Example 200, 5-(hydrazinocarbonyl)-2,3,4,9-tetrahydro-1H-beta-carboline-1-carboxylic acid trifluoroacetate]: the negative logarithm of the IC50 (pIC50) was less than 3.70.

As for `O=C1NCCc2c1[nH]c1c(Br)cc3c(c21)OCCO3` [Example 256, 6-bromo-2,3,7,9,10,11-hexahydro-8H-[1,4]dioxino[2,3-e]pyrido[3,4-b]indol-8-one], the pIC50 was less than 3.70.

Regarding `COc1ccc2[nH]c3c(c2c1)CCNC3C(=O)NN` (stereo not drawn) [Example 161, 6-methoxy-2,3,4,9-tetrahydro-1H-beta-carboline-1-carbohydrazide], the negative logarithm of the IC50 (pIC50) was less than 3.70.

Regarding `O=C(O)c1ccc2[nH]c3c(c2c1)CCNC3=O` [Example 271, 1-oxo-2,3,4,9-tetrahydro-1H-beta-carboline-6-carboxylic acid], the negative logarithm of the IC50 (pIC50) was less than 3.70.

For the compound `COc1ccc2[nH]c3c(c2c1)C(Cc1ccco1)CNC3C(=O)O` (stereo not drawn) [Example 222, 4-(2-furylmethyl)-6-methoxy-2,3,4,9-tetrahydro-1H-beta-carboline-1-carboxylic acid trifluoroacetate], the negative logarithm of the IC50 (pIC50) is less than 3.70.

As for `O=C(O)C1NCCc2c1[nH]c1ccc(OCc3ccc(Cl)cc3)cc21` (stereo not drawn) [Example 136, 6-[(4-chlorobenzyl)oxy]-2,3,4,9-tetrahydro-1H-beta-carboline-1-carboxylic acid], the negative-log IC50 (pIC50) was 3.95.

As for `CCOc1cc([N+](=O)[O-])c2[nH]c3c(c2c1)CCNC3=O` [Example 255, 6-ethoxy-8-nitro-2,3,4,9-tetrahydro-1H-beta-carbolin-1-one], the negative-log IC50 (pIC50) is less than 3.70.

Consider `COc1ccc2[nH]c3c(c2c1)CCC3=NO` [Example 132, 7-methoxy-1,4-dihydrocyclopenta[b]indol-3(2H)-one oxime], for which the negative-log IC50 (pIC50) was 3.98.

Take `COC(=O)c1cccc2c3c([nH]c12)CCCC3=O` [Example 100, methyl 4-oxo-2,3,4,9-tetrahydro-1H-carbazole-8-carboxylate]: the pIC50 was 4.40.

In the case of `O=C(O)C1NCCc2c1[nH]c1ccc(OCc3ccc(C(F)(F)F)cc3)cc21` (stereo not drawn) [Example 138, 6-{[4-(trifluoromethyl)benzyl]oxy}-2,3,4,9-tetrahydro-1H-beta-carboline-1-carboxylic acid hydrochloride hydrate], the pIC50 is 3.94.

For `COc1ccc2[nH]c3c(c2c1)CC(CC#N)NC3=O` (stereo not drawn) [Example 116, (6-methoxy-1-oxo-2,3,4,9-tetrahydro-1H-beta-carbolin-3-yl)acetontrile], the negative logarithm of the IC50 (pIC50) was 4.16.

For `COc1ccc2[nH]c3c(c2c1)CCN(C(=O)OCc1ccccc1)C3C(=O)O` (stereo not drawn) [Example 219, 2-[(benzyloxy)carbonyl]-6-methoxy-2,3,4,9-tetrahydro-1H-beta-carboline-1-carboxylic acid], the pIC50 is less than 3.70.

Turning to `CCC(CC)CN1CCc2c([nH]c3ccc(OC)cc23)C1C(=O)O` (stereo not drawn) [Example 197, sodium 2-(2-ethylbutyl)-6-methoxy-2,3,4,9-tetrahydro-1H-beta-carboline-1-carboxylate], the pIC50 is less than 3.70.

As for `COc1cccc2c3c([nH]c12)C(C(=O)O)NCC3` (stereo not drawn) [Example 223, 8-methoxy-2,3,4,9-tetrahydro-1H-beta-carboline-1-carboxylic acid trifluoroacetate hydrate], the pIC50 is less than 3.70.

In the case of `O=C1NCCc2c1[nH]c1ccc(I)cc21` [Example 120, 6-iodo-2,3,4,9-tetrahydro-1H-beta-carbolin-1-one], the pIC50 was 4.12.

As for `CN1C(=O)C(=O)c2c(n(C)c3ccccc23)C1=O` [Example 263, 1H-Pyrido[3,4-b]indole-1,3,4(2H,9H)-trione, 2,9-dimethyl- or 2,9-dimethyl-1H-beta-carboline-1,3,4(2H,9H)-trione], the pIC50 was less than 3.70.

On to `COc1ccc2[nH]c3c(c2c1)CCNC3[C@H](O)CO` (stereo partly drawn) [Example 239, (1S)-1-(6-methoxy-2,3,4,9-tetrahydro-1H-beta-carbolin-1-yl)ethane-1,2-diol trifluoroacetate], for which the negative-log IC50 (pIC50) was less than 3.70.

As to `COC(=O)C1(Cc2ccc(Cl)cc2)c2[nH]c3ccc(O)cc3c2CCN1C` (stereo not drawn) [Example 173, methyl 1-[4-chlorobenzyl)-6-hydroxy-2-methyl-2,3,4,9-tetrahydro-1H-beta-carboline-1-carboxylate], the pIC50 is less than 3.70.

Consider `CCOC(=O)C1(C(=O)OCC)NCCc2c1[nH]c1ccc(OC)cc21` [Example 171, diethyl 6-methoxy-2,3,4,9-tetrahydro-1H-beta-carboline-1,1-dicarboxylate], for which the negative-log IC50 (pIC50) is less than 3.70.

For the compound `COc1ccc2[nH]c3c(c2c1)CCN(C(=O)OCc1ccccc1)C3C(=O)NCC(=O)OCc1ccccc1` (stereo not drawn) [Example 218, 2-[(benzyloxy)carbonyl]-6-methoxy-N-[2-(benzyloxy)-2-oxo]ethyl-2,3,4,9-tetrahydro-1H-beta-carboline-1-carboxamide], the pIC50 is less than 3.70.

On to `O=C(O)C1NCCc2c1[nH]c1cc(F)ccc21` (stereo not drawn) [Example 214, 7-fluoro-2,3,4,9-tetrahydro-1H-beta-carboline-1-carboxylic acid hydrochloride], for which the pIC50 is less than 3.70.

For the compound `COC(=O)C12CCC(=O)N1CCc1c2[nH]c2ccc(OC)cc12` (stereo not drawn) [Example 162, methyl 8-methoxy-3-oxo-2,3,6,11-tetrahydro-1H-indolizino[8,7-b]indole-11b(5H)-carboxylate], the pIC50 is less than 3.70.

With `COc1ccc2[nH]c3c(c2c1)CCNC3C(=O)NCC(=O)O` (stereo not drawn) [Example 229, N-[(6-methoxy-2,3,4,9-tetrahydro-1H-beta-carbolin-1-yl)carbonyl]glycine hydrochloride hydrate], the pIC50 was less than 3.70.

`COc1cc2[nH]c3c(c2cc1OC)CCNC3C(=O)O` (stereo not drawn) [Example 201, 6,7-dimethoxy-2,3,4,9-tetrahydro-1H-beta-carboline-1-carboxylic acid trifluoroacetate]: the negative-log IC50 (pIC50) was less than 3.70.

Consider `COc1ccc2[nH]c3c(c2c1)CCN(C(C)C)C3C(=O)O` (stereo not drawn) [Example 157, sodium 2-isopropyl-6-methoxy-2,3,4,9-tetrahydro-1H-beta-carboline-1-carboxylate], for which the pIC50 is 3.77.

For `COc1ccc2[nH]c3c(c2c1)CCNC3C(F)(F)F` (stereo not drawn) [Example 224, 6-methoxy-1-(trifluoromethyl)-2,3,4,9-tetrahydro-1H-beta-carboline], the pIC50 was less than 3.70.

As for `COc1ccc2[nH]c3c(c2c1)CCNC3(C)C(=O)O` (stereo not drawn) [Example 237, 6-methoxy-1-methyl-2,3,4,9-tetrahydro-1H-beta-carboline-1-carboxylic acid hydrochloride], the negative-log IC50 (pIC50) is less than 3.70.

For the compound `O=C(O)C1NCCc2c1[nH]c1ccc(OCCc3ccccc3)cc21` (stereo not drawn) [Example 87, 6-(2-phenylethoxy)-2,3,4,9-tetrahydro-1H-beta-carboline-1-carboxylic acid hydrochloride], the pIC50 is 4.55.

As for `O=C(O)C1NCCc2c1[nH]c1c(OCc3ccccc3)cccc21` (stereo not drawn) [Example 194, 8-(benzyloxy)-2,3,4,9-tetrahydro-1H-beta-carboline-1-carboxylic acid], the negative-log IC50 (pIC50) was less than 3.70.

Regarding `COC(=O)C1c2[nH]c3ccc(OC)cc3c2CCN1CCCO[Si](C)(C)C(C)(C)C` (stereo not drawn) [Example 181, methyl 2-(3-{[tert-butyl(dimethyl)silyl]oxy}propyl)-6-methoxy-2,3,4,9-tetrahydro-1H-beta-carboline-1-carboxylate], the negative-log IC50 (pIC50) is less than 3.70.

Consider `COc1ccc2[nH]c3c(c2c1)CCN1CC(C)NC(=O)C31` (stereo not drawn) [Example 206, 9-methoxy-3-methyl-3,4,6,7,12,12b-hexahydropyrazino[1′, 2′:1 , 2]pyrido[3,4-b]indol-1(2H)-one], for which the pIC50 is less than 3.70.

As for `COc1ccc2[nH]c3c(c2c1)CCN1C(=O)CCC31C(=O)O` (stereo not drawn) [Example 163, 8-methoxy-3-oxo-2,3,6,11-tetrahydro-1H-indolizino[8,7-b]indole-11b(5H)-carboxylic acid], the pIC50 was less than 3.70.

Consider `NNC(=O)c1ccc2[nH]c3c(c2c1)CCNC3C(=O)O` (stereo not drawn) [Example 107, 6-(hydrazinocarbonyl)-2,3,4,9-tetrahydro-1H-beta-carboline-1-carboxylic acid], for which the pIC50 was 4.31.

On to `O=C1NCCc2c1[nH]c1cccc(C(=O)N3CCNCC3)c21` [Example 268, 5-(piperazin-1-ylcarbonyl)-2,3,4,9-tetrahydro-1H-beta-carbolin-1-one hydrochloride], for which the pIC50 is less than 3.70.

`COc1ccc2[nH]c3c(=O)[nH]ccc3c2c1` [Example 95, 6-methoxy-2,9-dihydro-1H-beta-carbolin-1-one]: the negative logarithm of the IC50 (pIC50) was 4.50.

`CS(=O)(=O)c1ccc(COc2ccc3[nH]c4c(c3c2)CCNC4C(=O)O)cc1` (stereo not drawn) [Example 104, 6-{[4-(methylsulfonyl)benzyl]oxy}-2,3,4,9-tetrahydro-1H-beta-carboline-1-carboxylic acid hydrochloride]: the negative-log IC50 (pIC50) is 4.35.

Regarding `O=C(O)C1NCCc2c1[nH]c1ccc(OCc3ccc4ccccc4c3)cc21` (stereo not drawn) [Example 127, 6-(2-naphthylmethoxy)-2,3,4,9-tetrahydro-1H-beta-carboline-1-carboxylic acid hydrochloride], the negative logarithm of the IC50 (pIC50) was 4.04.
